From ChEMBL document CHEMBL1154822, “Synthesis and antiproliferative activity of 7-azaindirubin-3'-oxime, a 7-aza isostere of the natural indirubin pharmacophore” (J Nat Prod, 2009)

Tests used:
[1] = test system: OVCAR-4; test: Cytotoxicity against human OVCAR4 cells assessed as cell growth at 10 uM after 48 hrs by MTT assay; format: functional; conditions: OVCAR-4, 48 h, read-out: Activity
[2] = test system: DU-145; test: Cytotoxicity against human DU145 cells assessed as cell growth at 10 uM after 48 hrs by MTT assay; format: functional; conditions: DU-145, 48 h, read-out: Activity
[3] = test system: SK-MEL-2; test: Cytotoxicity against human SK-MEL-2 cells assessed as cell growth at 10 uM after 48 hrs by MTT assay; format: functional; conditions: SK-MEL-2, 48 h, read-out: Activity
[4] = test system: M14; test: Cytotoxicity against human M14 cells assessed as cell growth at 10 uM after 48 hrs by MTT assay; format: functional; conditions: M14, 48 h, read-out: Activity
[5] = test system: HT-29; test: Cytotoxicity against human HT-29 cells assessed as cell growth at 10 uM after 48 hrs by MTT assay; format: functional; conditions: HT-29, 48 h, read-out: Activity
[6] = test system: SK-OV-3; test: Cytotoxicity against human SKOV3 cells assessed as cell growth at 10 uM after 48 hrs by MTT assay; format: functional; conditions: SK-OV-3, 48 h, read-out: Activity
[7] = test system: MDA-MB-231; test: Cytotoxicity against human MDA-MB-231 cells assessed as cell growth at 10 uM after 48 hrs by MTT assay; format: functional; conditions: MDA-MB-231, 48 h, read-out: Activity
[8] = test system: NCI-H226; test: Cytotoxicity against human NCI-H226 cells assessed as cell growth at 10 uM after 48 hrs by MTT assay; format: functional; conditions: NCI-H226, 48 h, read-out: Activity
[9] = test system: SW-620; test: Cytotoxicity against human SW620 cells assessed as cell growth at 10 uM after 48 hrs by MTT assay; format: functional; conditions: SW-620, 48 h, read-out: Activity
[10] = test system: PC-3; test: Cytotoxicity against human PC3 cells assessed as cell growth at 10 uM after 48 hrs by MTT assay; format: functional; conditions: PC-3, 48 h, read-out: Activity
[11] = Cytotoxicity against human Hs 578T cells assessed as cell growth at 10 uM after 48 hrs by MTT assay; format: functional; conditions: read-out: Activity
[12] = test system: SN12C; test: Cytotoxicity against human SN12C cells assessed as cell growth at 10 uM after 48 hrs by MTT assay; format: functional; conditions: read-out: Activity
[13] = test system: K562; test: Cytotoxicity against human K562 cells assessed as cell growth at 10 uM after 48 hrs by MTT assay; format: functional; conditions: K562, 48 h, read-out: Activity
[14] = test system: HOP-62; test: Cytotoxicity against human HOP62 cells assessed as cell growth at 10 uM after 48 hrs by MTT assay; format: functional; conditions: HOP-62, 48 h, read-out: Activity
[15] = test system: Malme-3M; test: Cytotoxicity against human MALME-3M cells assessed as cell growth at 10 uM after 48 hrs by MTT assay; format: functional; conditions: read-out: Activity
[16] = biological target: Cyclin-dependent kinase 1/cyclin B1 (Homo sapiens) (UniProt P06493+P14635); test: Inhibition of human CDK1/Cyclin B assessed as residual enzyme activity at 3 uM after 40 mins by scintillation counting; format: protein-complex assay
[17] = test system: SF-268; test: Cytotoxicity against human SF268 cells assessed as cell growth at 10 uM after 48 hrs by MTT assay; format: functional; conditions: SF-268, 48 h, read-out: Activity
[18] = test system: CAKI-1; test: Cytotoxicity against human Caki1 cells assessed as cell growth at 10 uM after 48 hrs by MTT assay; format: functional; conditions: CAKI-1, 48 h, read-out: Activity
[19] = test system: KM12; test: Cytotoxicity against human KM12 cells assessed as cell growth at 10 uM after 48 hrs by MTT assay; format: functional; conditions: KM12, 48 h, read-out: Activity
[20] = test system: MDA-MB-468; test: Cytotoxicity against human MDA-MB-468 cells assessed as cell growth at 10 uM after 48 hrs by MTT assay; format: functional; conditions: MDA-MB-468, 48 h, read-out: Activity
[21] = test system: UACC-257; test: Cytotoxicity against human UACC257 cells assessed as cell growth at 10 uM after 48 hrs by MTT assay; format: functional; conditions: UACC-257, 48 h, read-out: Activity
[22] = test system: BT-549; test: Cytotoxicity against human BT549 cells assessed as cell growth at 10 uM after 48 hrs by MTT assay; format: functional; conditions: BT-549, 48 h, read-out: Activity
[23] = test system: RXF 393; test: Cytotoxicity against human […] cells assessed as cell growth at 10 uM after 48 hrs by MTT assay; format: functional; conditions: RXF 393, 48 h, read-out: Activity
[24] = test system: NCI-H23; test: Cytotoxicity against human NCI-H23 cells assessed as cell growth at 10 uM after 48 hrs by MTT assay; format: functional; conditions: NCI-H23, 48 h, read-out: Activity
[25] = test system: HCT-15; test: Cytotoxicity against human HCT15 cells assessed as cell growth at 10 uM after 48 hrs by MTT assay; format: functional; conditions: HCT-15, 48 h, read-out: Activity
[26] = biological target: Glycogen synthase kinase-3 beta (Homo sapiens) (UniProt P49841); test: Inhibition of human GSK3-beta assessed as residual enzyme activity at 0.3 uM after 40 mins by scintillation counting
[27] = test system: ACHN; test: Cytotoxicity against human ACHN cells assessed as cell growth at 10 uM after 48 hrs by MTT assay; format: functional; conditions: read-out: Activity
[28] = test system: U-251; test: Cytotoxicity against human U251 cells assessed as cell growth at 10 uM after 48 hrs by MTT assay; format: functional; conditions: U-251, 48 h, read-out: Activity
[29] = test system: NCI-H522; test: Cytotoxicity against human NCI-H522 cells assessed as cell growth at 10 uM after 48 hrs by MTT assay; format: functional; conditions: NCI-H522, 48 h, read-out: Activity
[30] = test system: SNB-19; test: Cytotoxicity against human SNB19 cells assessed as cell growth at 10 uM after 48 hrs by MTT assay; format: functional; conditions: SNB-19, 48 h, read-out: Activity
[31] = test system: IGROV-1; test: Cytotoxicity against human IGROV1 cells assessed as cell growth at 10 uM after 48 hrs by MTT assay; format: functional; conditions: IGROV-1, 48 h, read-out: Activity
[32] = biological target: Cyclin-dependent kinase 5/CDK5 activator 1 (Homo sapiens) (UniProt Q00535+Q15078); test: Inhibition of human CDK5/p35 assessed as residual enzyme activity at 0.3 uM after 40 mins by scintillation counting; format: protein-complex assay
[33] = test system: A549; test: Cytotoxicity against human A549 cells assessed as cell growth at 10 uM after 48 hrs by MTT assay; format: functional; conditions: A549, 48 h, read-out: Activity
[34] = test system: UACC-62; test: Cytotoxicity against human UACC62 cells assessed as cell growth at 10 uM after 48 hrs by MTT assay; format: functional; conditions: UACC-62, 48 h, read-out: Activity
[35] = test system: UO-31; test: Cytotoxicity against human UO31 cells assessed as cell growth at 10 uM after 48 hrs by MTT assay; format: functional; conditions: UO-31, 48 h, read-out: Activity
[36] = test system: COLO 205; test: Cytotoxicity against human COLO205 cells assessed as cell growth at 10 uM after 48 hrs by MTT assay; format: functional; conditions: COLO 205, 48 h, read-out: Activity
[37] = test system: LOX IMVI; test: Cytotoxicity against human LOXIMVI cells assessed as cell growth at 10 uM after 48 hrs by MTT assay; format: functional; conditions: read-out: Activity

Cyclin-dependent kinase 1/cyclin B1 (Homo sapiens), sequence (P06493 whole entry, looked up): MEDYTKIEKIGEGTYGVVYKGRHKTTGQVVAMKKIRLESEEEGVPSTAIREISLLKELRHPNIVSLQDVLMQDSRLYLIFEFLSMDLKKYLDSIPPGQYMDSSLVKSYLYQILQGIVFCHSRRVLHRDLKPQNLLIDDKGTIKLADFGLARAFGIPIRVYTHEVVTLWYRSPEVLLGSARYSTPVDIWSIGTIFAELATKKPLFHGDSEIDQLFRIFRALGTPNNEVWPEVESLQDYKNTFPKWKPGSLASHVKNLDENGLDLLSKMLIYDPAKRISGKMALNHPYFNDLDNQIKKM
Cyclin-dependent kinase 1/cyclin B1 (Homo sapiens), sequence (P14635 whole entry, looked up): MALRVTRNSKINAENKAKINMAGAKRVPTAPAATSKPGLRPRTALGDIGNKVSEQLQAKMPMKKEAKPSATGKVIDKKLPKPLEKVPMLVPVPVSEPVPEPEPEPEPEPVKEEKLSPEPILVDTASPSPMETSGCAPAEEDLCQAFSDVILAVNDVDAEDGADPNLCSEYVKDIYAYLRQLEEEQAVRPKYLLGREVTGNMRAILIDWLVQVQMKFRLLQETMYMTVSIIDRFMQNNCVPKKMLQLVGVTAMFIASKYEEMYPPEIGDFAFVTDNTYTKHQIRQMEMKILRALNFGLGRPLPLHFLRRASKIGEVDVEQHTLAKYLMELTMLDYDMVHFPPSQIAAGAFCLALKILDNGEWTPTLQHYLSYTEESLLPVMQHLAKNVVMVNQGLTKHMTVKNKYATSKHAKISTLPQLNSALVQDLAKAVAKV
Glycogen synthase kinase-3 beta (Homo sapiens), sequence (P49841 whole entry, looked up): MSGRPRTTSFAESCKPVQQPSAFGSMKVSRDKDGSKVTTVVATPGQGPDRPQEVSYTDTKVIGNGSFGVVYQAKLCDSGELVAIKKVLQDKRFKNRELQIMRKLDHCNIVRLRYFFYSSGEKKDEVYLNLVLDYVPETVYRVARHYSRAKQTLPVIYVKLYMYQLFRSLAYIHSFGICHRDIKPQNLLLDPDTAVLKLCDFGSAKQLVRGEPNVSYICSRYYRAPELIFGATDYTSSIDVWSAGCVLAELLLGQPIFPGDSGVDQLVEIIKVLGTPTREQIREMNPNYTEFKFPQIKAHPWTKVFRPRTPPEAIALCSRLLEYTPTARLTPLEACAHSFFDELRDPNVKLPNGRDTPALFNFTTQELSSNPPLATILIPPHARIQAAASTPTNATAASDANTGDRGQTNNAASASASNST

Structure (SMILES)	growth at 10 µM [1] [%]	growth at 10 µM [2] [%]	growth at 10 µM [3] [%]	growth at 10 µM [4] [%]	growth at 10 µM [5] [%]	growth at 10 µM [6] [%]	growth at 10 µM [7] [%]	growth at 10 µM [8] [%]	growth at 10 µM [9] [%]	growth at 10 µM [10] [%]	growth at 10 µM [11] [%]	growth at 10 µM [12] [%]	growth at 10 µM [13] [%]	growth at 10 µM [14] [%]	growth at 10 µM [15] [%]	Activity [16] [%]	growth at 10 µM [17] [%]	growth at 10 µM [18] [%]	growth at 10 µM [19] [%]	growth at 10 µM [20] [%]	other results
O=C1Nc2ncccc2/C1=C1/Nc2ccccc2/C1=N\O	86.7	82.2	14.7	56.4	102	6.5	78.6	78.6	82.8	67.7	-9.72	72.8	53.2	45.9	91	69	86.2	12.4	15	28.4	growth at 10 µM [21]: 92.6%; growth at 10 µM [22]: 45.2%; growth at 10 µM [23]: 29.4%; growth at 10 µM [24]: 89.7%; growth at 10 µM [25]: 33.9%; Activity [26]: 64%; growth at 10 µM [27]: 22.6%; growth at 10 µM [28]: 87.3%; growth at 10 µM [29]: 47.6%; growth at 10 µM [30]: 96.5%; growth at 10 µM [31]: -25.3%; Activity [32]: 65%; growth at 10 µM [33]: 46.6%; growth at 10 µM [34]: 56.7%; growth at 10 µM [35]: 10.6%; growth at 10 µM [36]: 106%; growth at 10 µM [37]: 44.5%
O=C1Nc2ncccc2/C1=C1/Nc2ccccc2C1=O	80.4	81.2	43.4	93.8	93.8	89.5	78.3	89	102	73	72.5	90.6	85.5	68.8	139	65	84.4	53.7	89.5	42.8	growth at 10 µM [21]: 96.5%; growth at 10 µM [22]: 70.6%; growth at 10 µM [23]: 71.2%; growth at 10 µM [24]: 76%; growth at 10 µM [25]: 77.9%; Activity [26]: 93%; growth at 10 µM [27]: 51.5%; growth at 10 µM [28]: 88.2%; growth at 10 µM [29]: 76.3%; growth at 10 µM [30]: 96.4%; growth at 10 µM [31]: -40.9%; Activity [32]: 82%; growth at 10 µM [33]: 82.3%; growth at 10 µM [34]: 79.6%; growth at 10 µM [35]: 46.2%; growth at 10 µM [36]: 82.8%; growth at 10 µM [37]: 76.3%
CN1C(=O)/C(=C2/C(=O)N(C)c3ncccc32)c2cccnc21	99.8	119	83.5	92.7	99.5	111	117	102	109	100	115	105	137	91.1	91.5	95	103	95.5	110	95.5	growth at 10 µM [21]: 102%; growth at 10 µM [22]: 81.8%; growth at 10 µM [23]: 101%; growth at 10 µM [24]: 103%; growth at 10 µM [25]: 96%; Activity [26]: 105%; growth at 10 µM [27]: 94.6%; growth at 10 µM [28]: 95.8%; growth at 10 µM [29]: 98%; growth at 10 µM [30]: 99.4%; growth at 10 µM [31]: 52.2%; Activity [32]: 101%; growth at 10 µM [33]: 101%; growth at 10 µM [34]: 103%; growth at 10 µM [35]: 88.3%; growth at 10 µM [36]: 117%; growth at 10 µM [37]: 101%
